In US5886165A, “Mixed backbone antisense oligonucleotides containing 2'-5'-ribonucleotide- and 3'-5'-deoxyribonucleotides segments” (Hybridon, Inc., priority 1996, dated 1999):
[25] = 2'-5' internucleotide linkage (phosphodiester)

Key:
[1] = target: T1, S1 nuclease (Aspergillus oryzae, UniProt P24021); experiment: S1 nuclease assay; type: in vitro ADME; conditions: 1.4 U, 37° C., pH 5.0
T1 construct: purchased Gibco/BRL
T1 sequence (P24021 21-287): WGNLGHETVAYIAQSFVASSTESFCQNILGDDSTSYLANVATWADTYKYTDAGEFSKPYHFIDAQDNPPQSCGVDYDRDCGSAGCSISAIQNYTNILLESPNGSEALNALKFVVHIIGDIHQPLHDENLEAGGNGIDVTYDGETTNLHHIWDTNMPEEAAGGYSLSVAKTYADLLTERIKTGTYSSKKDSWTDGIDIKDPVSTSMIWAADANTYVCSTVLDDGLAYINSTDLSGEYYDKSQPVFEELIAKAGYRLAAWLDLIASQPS
Method: (§1) For snake venom phosphodiesterase assay, labeled oligonucleotide with cold oligonucleotide in a buffer (10 mM Tris, pH 8.0, 100 mM sodium chloride, and 10 mM magnesium chloride) was incubated with 0.01 U of snake venom phosphodiesterase (Boehringer-Mannheim, Indianapolis, Ind.) at 21° C. (final volume 40 μl). Aliquots were removed at different time intervals for electrophoretic gel analysis. For S1 nuclease assay, reactions were carried out as above but in […] sodium acetate, pH 5.0, 10 mM zinc acetate buffer and with 1.4 U of S1 nuclease (Gibco/BRL) incubated at 37° C. in a final volume of 50 μl. Aliquots were removed at different time intervals for electrophoretic gel analysis. Nuclease reactions were stopped by adding 5 μl of formamide gel loading buffer to each sample and heating at 90° C. for 5 min. All the samples were then run by 20% PAGE (7M urea) and visualized by autoradiography.

[2] = tested on: citrated normal human donor plasma; experiment: Clotting assay, activated partial thromboplastin time (aPTT); conditions: compared to saline control; for 50% Prolongation of Clotting (aPTT): human plasma; for effect in coagulation assay (in words): up to 100 μg/ml dose
Method: The activated partial thromboplastin time (aPTT) was performed with citrated normal human donor plasma in duplicate on an Electra 1000C (Medical Laboratory Automation, Mount Vernon, N.Y.) according to recommended procedures using Actin FSL (Baxter Dade, Miami, Fla.) and 2.5 mM calcium to initiate clot formation, which was measured photometrically. Normal plasma aPTT values ranged from 27 to 39 sec. Data were calculated as 50% of prolongation as compared to the saline control.

[3] = Stability in DMEM cell culture medium containing 10% fetal calf serum; type: in vitro ADME; conditions: DMEM with 10% non-heat-inactivated fetal calf serum, 37° C.
Method: Oligonucleotides were labeled at the 5'-end with ^32 P using γ-^32 P-ATP (Amersham) and T4 polynucleotide kinase (Promega). Sambrook et al, Molecular Cloning, supra. Stability of the oligonucleotides in cell culture medium containing 10% fetal calf serum was tested by incubating a small amount of labeled oligonucleotide together with 100 ng of cold oligonucleotide in DMEM cell culture medium (Gibco/BRL, Grand Island, N.Y.) containing 10% non-heat-inactivated fetal calf serum (Gibco/BRL) at 37° C. in a final volume of 40 μl, and aliquots were removed at different times.

[4] = tested on: RNA target strand SEQ ID NO 9 (25 base sequence from the initiation codon region of the HIV-1 gag mRNA); experiment: Thermal melting study, duplex with RNA target strand; type: binding; conditions: for Tm RNA: duplex with RNA SEQ ID NO 9, 10 mM disodium hydrogen phosphate pH 7.5, 100 mM NaCl, 2.0 μM total strands
Method: (§2) Thermal denaturation studies were carried out by mixing MBOs with the DNA or RNA target strands in equimolar ratios in 10 mM disodium hydrogen phosphate, pH 7.5±0.1, 100 mM sodium chloride buffer, heated to 95° C. for 10 min, and allowed to come to room temperature slowly before being stored at 4° C. overnight. The final total concentration of the oligonucleotide strands was 2.0 μM. Spectrophotometric measurements were performed at 260 nm using 1 cm path length quartz cuvettes at a heating rate of 0.5° C./min on a Perkin-Elmer (Norwalk, Conn.) Lambda 2 Specotrometer attached to a thermal controller and a personal computer. Melting temperatures (Tm) taken as the temperature of half-dissociation and were obtained from first derivative plots. Precision in Tm values estimated from variance in two or three repeated experiments was ±0.5° C.

[5] = tested on: Spleen cells (CD1 mouse); experiment: In vitro cell proliferation assay ([3H]thymidine); type: cell-based; conditions: at 10 μg/ml, 48 hrs
Method: Cell proliferation assays were carried out as described earlier (Zhao et al., Biochem. Pharmacol 51, 173-182 (1996)). Spleen cells (4-5 week old male CD1 mouse, 20-22 gm, Charles River, Wilmington, Mass.) suspensions were prepared and plated in 96-well dishes at a density of 10^6 cells/ml in a final volume of 100 μl. The cells were incubated at 37° C. after adding 10 μl of oligonucleotides. After 44 hrs incubation, 1 μCi [3H]thymidine (Amersham, Arlington Heights, Ill.) was added and the cells were pulse-labeled for another 4 hrs. The cells were harvested by an automatic cell harvester and the filters were counted by a scintillation counter. All experiments were carried out in triplicate.

[6] = tested on: DNA target strand SEQ ID NO 10 (25 base sequence from the initiation codon region of the HIV-1 gag mRNA); experiment: Thermal melting study, duplex with DNA target strand; type: binding; conditions: for Tm DNA: duplex with DNA SEQ ID NO 10, 10 mM disodium hydrogen phosphate pH 7.5, 100 mM NaCl, 2.0 μM total strands
Method: as §2

[7] = tested on: snake venom phosphodiesterase; experiment: Snake venom phosphodiesterase assay; type: in vitro ADME; conditions: 0.01 U, 21° C.; compared with SEQ ID NO 7
Method: as §1

Substance | digestion by S1 nuclease (in words) [1] | 50% Prolongation of Clotting (aPTT) [2] [µg/mL] | effect in coagulation assay (in words) [2] | stability in serum (in words) [3] | Tm RNA [4] [°C] | Tm lower than duplex of control oligonucleotide SEQ ID NO 7, RNA target ([4]; vs SEQ ID NO 7, RNA SEQ ID NO 9) [°C] | Stimulation Index (Lymphocyte Proliferation) [5] | Tm DNA [6] [°C] | Tm lower than duplex of control oligonucleotide SEQ ID NO 7, DNA target ([6]; vs SEQ ID NO 7, DNA SEQ ID NO 10) | stability against snake venom phosphodiesterase (in words) [7] | ΔTm with the RNA strand ([4]; destabilizing effect, RNA strand) [°C] | ΔTm with the DNA strand ([6]; destabilizing effect, DNA strand) [°C]
SEQ ID NO 1: Phosphodiester MBO with three 2'-5'-linkages at each of the 5'- and 3'-ends, complementary to HIV-1 gag mRNA (antisense CUCTCGCACCCATCTCTCTCCUUCT; linkages [25]3 o18 [25]3 (s phosphorothioate, o phosphodiester), sugars by position and methylation of C not given here) | quickly digested | > 100.0 | negligible effect | intact up to four hours | 67.8 | ~2.7 | 0.67 ± 0.11 | 60.6 | about 2.9 °C | slightly higher stability |  | 
SEQ ID NO 4: Phosphodiester MBO with three 2'-5' linkages at each end and an additional three in the middle (antisense CUCTCGCACCCAUCTCTCTCCUUCT; phosphodiester, three 2'-5' linkages at each end and three in middle, further chemistry not given here) | quickly digested | > 100.0 | negligible effect | intact up to four hours | 64.5 |  |  | 52.8 |  | slightly higher stability | -6.0 | -10.7
